pIC50: −log10 of the molar value. The source made the active and inactive calls. How the calls were made is not given here.
Target: Tyrosine-protein kinase ABL1 (Homo sapiens) + Ras and Rab interactor 1 (Homo sapiens) (UniProt P00519+Q13671)
Test: Rin1/ABL1 binding disruption, potency – biochemical, TR-FRET, round 2, late-stage follow-up (AID 686966)
Details: TR-FRET Rin1-Abl binding

Sequence of Tyrosine-protein kinase ABL1 (Homo sapiens) + Ras and Rab interactor 1 (Homo sapiens) (P00519 whole entry, looked up): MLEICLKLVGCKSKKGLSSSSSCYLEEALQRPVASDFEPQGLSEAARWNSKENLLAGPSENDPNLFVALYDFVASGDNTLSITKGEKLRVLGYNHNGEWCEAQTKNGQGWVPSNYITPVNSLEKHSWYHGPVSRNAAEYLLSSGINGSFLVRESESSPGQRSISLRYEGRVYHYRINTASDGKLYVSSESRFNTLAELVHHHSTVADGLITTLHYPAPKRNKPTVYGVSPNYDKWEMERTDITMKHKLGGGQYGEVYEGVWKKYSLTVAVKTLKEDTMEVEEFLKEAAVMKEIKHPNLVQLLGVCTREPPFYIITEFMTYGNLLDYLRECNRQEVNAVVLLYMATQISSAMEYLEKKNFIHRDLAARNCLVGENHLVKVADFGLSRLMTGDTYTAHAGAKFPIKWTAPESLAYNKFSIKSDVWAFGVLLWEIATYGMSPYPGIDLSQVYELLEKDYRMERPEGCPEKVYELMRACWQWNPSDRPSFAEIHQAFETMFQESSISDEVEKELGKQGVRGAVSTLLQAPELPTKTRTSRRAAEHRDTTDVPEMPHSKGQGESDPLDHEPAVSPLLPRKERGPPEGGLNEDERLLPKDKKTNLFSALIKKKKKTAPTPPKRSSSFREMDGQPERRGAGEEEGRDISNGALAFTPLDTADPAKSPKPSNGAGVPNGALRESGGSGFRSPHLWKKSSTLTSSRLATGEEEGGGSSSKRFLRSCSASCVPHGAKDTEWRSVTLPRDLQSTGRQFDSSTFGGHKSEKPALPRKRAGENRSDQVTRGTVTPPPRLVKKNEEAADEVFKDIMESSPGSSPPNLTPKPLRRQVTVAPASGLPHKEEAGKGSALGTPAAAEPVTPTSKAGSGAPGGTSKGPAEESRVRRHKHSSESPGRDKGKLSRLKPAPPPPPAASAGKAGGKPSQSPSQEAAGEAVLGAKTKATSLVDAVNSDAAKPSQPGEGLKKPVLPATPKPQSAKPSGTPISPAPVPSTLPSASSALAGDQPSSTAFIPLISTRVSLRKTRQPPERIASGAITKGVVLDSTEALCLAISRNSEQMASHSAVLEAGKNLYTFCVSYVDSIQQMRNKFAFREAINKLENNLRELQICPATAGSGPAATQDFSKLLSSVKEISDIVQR
Sequence of Tyrosine-protein kinase ABL1 (Homo sapiens) + Ras and Rab interactor 1 (Homo sapiens) (Q13671 whole entry, looked up): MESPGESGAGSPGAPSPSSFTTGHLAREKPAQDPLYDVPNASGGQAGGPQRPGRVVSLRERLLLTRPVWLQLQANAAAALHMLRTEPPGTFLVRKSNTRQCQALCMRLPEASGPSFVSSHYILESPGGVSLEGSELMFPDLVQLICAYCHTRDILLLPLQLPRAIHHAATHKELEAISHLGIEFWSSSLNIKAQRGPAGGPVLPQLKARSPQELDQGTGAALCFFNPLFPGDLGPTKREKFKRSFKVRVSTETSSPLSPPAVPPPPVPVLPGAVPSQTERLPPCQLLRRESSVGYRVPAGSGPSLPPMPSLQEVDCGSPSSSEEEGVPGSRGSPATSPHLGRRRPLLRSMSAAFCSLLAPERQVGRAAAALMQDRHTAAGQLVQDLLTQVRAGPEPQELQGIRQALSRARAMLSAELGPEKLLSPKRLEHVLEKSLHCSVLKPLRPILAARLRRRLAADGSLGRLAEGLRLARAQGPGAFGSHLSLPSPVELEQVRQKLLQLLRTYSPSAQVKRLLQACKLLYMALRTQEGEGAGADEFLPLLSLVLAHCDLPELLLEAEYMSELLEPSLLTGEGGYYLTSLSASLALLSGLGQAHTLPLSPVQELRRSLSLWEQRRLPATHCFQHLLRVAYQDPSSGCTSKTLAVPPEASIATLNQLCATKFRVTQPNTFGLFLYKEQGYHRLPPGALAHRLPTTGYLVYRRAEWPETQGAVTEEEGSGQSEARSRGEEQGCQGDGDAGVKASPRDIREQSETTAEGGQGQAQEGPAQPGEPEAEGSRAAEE

Structure (SMILES)	pIC50	IC50
O=c1cc(OCc2ccc(F)cc2)cc[nH]1	7.71	–
COc1ccc(COc2ccn(C)c(=O)c2)cc1	–	> 73500 nM (inactive)
O=c1cc(OCc2ccccc2)cc[nH]1	7.64	–
COc1cc(OCc2ccccc2)ccn1	–	> 73500 nM (inactive)
Cn1ccc(OCc2ccccc2)cc1=O	–	> 73500 nM (inactive)
Cn1ccc(OCc2ccc(F)cc2)cc1=O	–	inactive
COc1ccc(COc2ccnc(OC)c2)cc1	–	> 73500 nM (inactive)
Nc1cc(OCc2ccccc2)ccn1	–	> 73500 nM (inactive)
COc1cc(OCc2ccc(F)cc2)ccn1	–	inactive
COc1ccc(COc2cc[nH]c(=O)c2)cc1	7.40	–

— PubChem BioAssay AID686966 (The Scripps Research Institute Molecular Screening Center, 2013)
